{"source": "patent US20160198705A1", "about": "“APPLICATION OF BISPHENOL SALT IN PREPARING DISINFECTANT USED FOR STERILIZATION OR FORMALDEHYDE REMOVAL” (NINGBO YUCHEN ENVIROCLEAN TECH CO., LTD., priority 2013, published 2016)", "key": {"[1]": {"system": "Staphylococcus aureus", "assay": "Kirby-Bauer diffusion detection of sterilization capability (zone without bacterial growth around the filter paper)", "assay_type": "cell-based", "settings": "for sterilization effect without oxygen ventilation (diameter, mm): pH 10, no ventilation of oxygen"}, "[2]": {"system": "Staphylococcus aureus", "assay": "Kirby-Bauer diffusion detection of sterilization capability (zone without bacterial growth around the filter paper)", "assay_type": "cell-based", "method": "In catalyst screening, Staphylococcus aureus was used as the microorganisms, and a trypsin soybean agar was used as a culture medium. The material powder to be screened was prepared into a homogeneous mixture solution by pure water in a 5% weight/volume ratio (i.e., 5 g powder/100 mL water) (in rare cases of low solubility, firstly dissolved with a small amount of glycerol, then diluted with pure water), then immersed with a neutral precise filtration filter paper of 5 mm diameter for about 10 seconds, then placed into a Kirby-Bauer diffusion detection plate. A Kirby-Bauer diffusion detection plate was placed in a sealed glass cover, and the air was provided into the glass cover at a speed of about 10 liters per minute. The sterilizing capability of the catalyst was measured by the diameter of the zone without bacterial growth around the filter paper.\nA variety of bisphenol salts were respectively prepared into a water solution with a mass concentration being 5%, and the pH was controlled to 10. The sterilization capability was still detected by Kirby-Bauer diffusion detection method in which Staphylococcus aureus was […] used as the microorganisms, respectively including two cases of no ventilation of oxygen and ventilation of oxygen. When oxygen was ventilated, the condition for oxygen ventilation was the same, the temperature was room temperature (25[…]) and 37[…].\nThe sterilization capability was detected by Kirby-Bauer diffusion detection method in which Staphylococcus aureus was still used as the microorganisms, and the condition for oxygen ventilation was identical, the temperature was room temperature (25[…]) and 37[…].\nOrtho-bisphenol potassium was respectively prepared to form water solutions with a concentration of 5% and pH value of 6, 7, 8, 8.5, 9, 9.5, 10, 10.5, 11, 11.5, 12. The sterilization capability was detected by Kirby-Bauer diffusion detection method in which Staphylococcus aureus was still used as the microorganisms, the condition for oxygen ventilation was identical, the temperature was room temperature (25[…]) and 37[…]."}, "[3]": {"settings": "5% water solution, pH 10, oxygen ventilation"}, "[4]": {"settings": "5% weight/volume in pure water, air provided at about 10 liters per minute"}, "[5]": {"settings": "concentration 1.0%, pH 10, oxygen ventilation"}, "[6]": {"settings": "concentration 5%, pH 10, oxygen ventilation"}, "[7]": {"settings": "concentration 10%, pH 10, oxygen ventilation"}, "[8]": {"settings": "pH 6, concentration 5%, oxygen ventilation"}, "[9]": {"settings": "pH 8.5, concentration 5%, oxygen ventilation"}, "[10]": {"settings": "pH 9, concentration 5%, oxygen ventilation"}, "[11]": {"settings": "pH 10, concentration 5%, oxygen ventilation"}, "[12]": {"settings": "concentration 0.5%, pH 10, oxygen ventilation"}, "[13]": {"settings": "concentration 2.0%, pH 10, oxygen ventilation"}, "[14]": {"settings": "concentration 15%, pH 10, oxygen ventilation"}, "[15]": {"settings": "concentration 20%, pH 10, oxygen ventilation"}, "[16]": {"settings": "pH 7, concentration 5%, oxygen ventilation"}, "[17]": {"settings": "pH 8, concentration 5%, oxygen ventilation"}, "[18]": {"settings": "pH 9.5, concentration 5%, oxygen ventilation"}, "[19]": {"settings": "pH 10.5, concentration 5%, oxygen ventilation"}, "[20]": {"settings": "pH 11, concentration 5%, oxygen ventilation"}, "[21]": {"settings": "pH 11.5, concentration 5%, oxygen ventilation"}, "[22]": {"settings": "pH 12, concentration 5%, oxygen ventilation"}}}
{"smiles": "[K+].[K+].[O-]c1ccccc1-c1cc(Cl)ccc1[O-]", "values": [{"measurement": "sterilization effect without oxygen ventilation (diameter, mm)", "setting": "[1]; 5% water solution", "result": 3, "unit": "mm"}, {"measurement": "sterilization effect at 25[…] (diameter, mm)", "setting": "[1]; [3]", "result": 19, "unit": "mm"}, {"measurement": "sterilization effect at 37[…] (diameter, mm)", "setting": "[1]; [3]", "result": 19, "unit": "mm"}]}
{"smiles": "[Cl-].[Na+]", "note": "[sodium chloride, reference compound]", "values": [{"measurement": "sterilization effect", "setting": "[1]; [4]", "result": "essentially had no effect"}]}
{"smiles": "[K+].[K+].[O-]c1cccc(Oc2cccc([O-])c2)c1", "values": [{"measurement": "sterilization effect without oxygen ventilation (diameter, mm)", "setting": "[1]; 5% water solution", "result": 6, "unit": "mm"}, {"measurement": "sterilization effect at 25[…] (diameter, mm)", "setting": "[1]; [3]", "result": 16, "unit": "mm"}, {"measurement": "sterilization effect at 37[…] (diameter, mm)", "setting": "[1]; [3]", "result": 18, "unit": "mm"}]}
{"smiles": "O=S(=O)([O-])[O-].[Na+].[Na+]", "note": "[sulfate sodium, reference compound]", "values": [{"measurement": "sterilization effect", "setting": "[1]; [4]", "result": "essentially had no effect"}]}
{"smiles": "[Na+].[Na+].[O-]c1ccccc1Oc1ccccc1[O-]", "values": [{"measurement": "sterilization effect without oxygen ventilation (diameter, mm)", "setting": "[1]; 5% water solution", "result": 5, "unit": "mm"}, {"measurement": "sterilization effect at 25[…] (diameter, mm)", "setting": "[1]; [3]", "result": 17, "unit": "mm"}, {"measurement": "sterilization effect at 37[…] (diameter, mm)", "setting": "[1]; [3]", "result": 19, "unit": "mm"}]}
{"smiles": "[Na+].[Na+].[O-]c1ccccc1-c1ccccc1[O-]", "note": "[2,2′-ortho-bisphenol sodium]", "values": [{"measurement": "inhibition zone diameter", "setting": "[1]; [4]", "result": 15, "unit": "mm"}]}
{"smiles": "[K+].[K+].[O-]c1cccc(-c2cccc([O-])c2)c1", "values": [{"measurement": "sterilization effect without oxygen ventilation (diameter, mm)", "setting": "[1]; 5% water solution", "result": 2, "unit": "mm"}, {"measurement": "sterilization effect at 25[…] (diameter, mm)", "setting": "[1]; [3]", "result": 20, "unit": "mm"}, {"measurement": "sterilization effect at 37[…] (diameter, mm)", "setting": "[1]; [3]", "result": 19, "unit": "mm"}]}
{"smiles": "O=C(O)c1ccc(-c2ccccc2[O-])c([O-])c1.[K+].[K+]", "values": [{"measurement": "sterilization effect without oxygen ventilation (diameter, mm)", "setting": "[1]; 5% water solution", "result": 2, "unit": "mm"}, {"measurement": "sterilization effect at 25[…] (diameter, mm)", "setting": "[1]; [3]", "result": 19, "unit": "mm"}, {"measurement": "sterilization effect at 37[…] (diameter, mm)", "setting": "[1]; [3]", "result": 19, "unit": "mm"}]}
{"smiles": "[K+].[K+].[O-]c1ccccc1-c1ccccc1[O-]", "note": "[ortho-bisphenol potassium]", "values": [{"measurement": "sterilization effect at 25[…] (diameter, mm)", "setting": "[2]; [5]", "result": 11, "unit": "mm"}, {"measurement": "sterilization effect at 37[…] (diameter, mm)", "setting": "[2]; [6]", "result": 19, "unit": "mm"}, {"measurement": "sterilization effect at 25[…] (diameter, mm)", "setting": "[2]; [7]", "result": 20, "unit": "mm"}, {"measurement": "sterilization effect at 25[…] (diameter, mm)", "setting": "[2]; [8]", "result": 5, "unit": "mm"}, {"measurement": "sterilization effect at 37[…] (diameter, mm)", "setting": "[2]; [9]", "result": 14, "unit": "mm"}, {"measurement": "sterilization effect at 25[…] (diameter, mm)", "setting": "[2]; [10]", "result": 15, "unit": "mm"}, {"measurement": "sterilization effect at 25[…] (diameter, mm)", "setting": "[2]; [11]", "result": 19, "unit": "mm"}, {"measurement": "sterilization effect at 37[…] (diameter, mm)", "setting": "[2]; [11]", "result": 20, "unit": "mm"}, {"measurement": "sterilization effect without oxygen ventilation (diameter, mm)", "setting": "[1]; 5% water solution", "result": 3, "unit": "mm"}, {"measurement": "sterilization effect at 25[…] (diameter, mm)", "setting": "[1]; [3]", "result": 18, "unit": "mm"}, {"measurement": "sterilization effect at 37[…] (diameter, mm)", "setting": "[1]; [3]", "result": 19, "unit": "mm"}, {"measurement": "sterilization effect at 25[…] (diameter, mm)", "setting": "[1]; [12]", "result": 8, "unit": "mm"}, {"measurement": "sterilization effect at 37[…] (diameter, mm)", "setting": "[1]; [12]", "result": 9, "unit": "mm"}, {"measurement": "sterilization effect at 37[…] (diameter, mm)", "setting": "[1]; [5]", "result": 10, "unit": "mm"}, {"measurement": "sterilization effect at 25[…] (diameter, mm)", "setting": "[1]; [13]", "result": 14, "unit": "mm"}, {"measurement": "sterilization effect at 37[…] (diameter, mm)", "setting": "[1]; [13]", "result": 16, "unit": "mm"}, {"measurement": "sterilization effect at 25[…] (diameter, mm)", "setting": "[1]; [6]", "result": 18, "unit": "mm"}, {"measurement": "sterilization effect at 37[…] (diameter, mm)", "setting": "[1]; [7]", "result": 20, "unit": "mm"}, {"measurement": "sterilization effect at 25[…] (diameter, mm)", "setting": "[1]; [14]", "result": 19, "unit": "mm"}, {"measurement": "sterilization effect at 37[…] (diameter, mm)", "setting": "[1]; [14]", "result": 18, "unit": "mm"}, {"measurement": "sterilization effect at 25[…] (diameter, mm)", "setting": "[1]; [15]", "result": 17, "unit": "mm"}, {"measurement": "sterilization effect at 37[…] (diameter, mm)", "setting": "[1]; [15]", "result": 19, "unit": "mm"}, {"measurement": "sterilization effect at 37[…] (diameter, mm)", "setting": "[1]; [8]", "result": 5, "unit": "mm"}, {"measurement": "sterilization effect at 25[…] (diameter, mm)", "setting": "[1]; [16]", "result": 5, "unit": "mm"}, {"measurement": "sterilization effect at 37[…] (diameter, mm)", "setting": "[1]; [16]", "result": 6, "unit": "mm"}, {"measurement": "sterilization effect at 25[…] (diameter, mm)", "setting": "[1]; [17]", "result": 8, "unit": "mm"}, {"measurement": "sterilization effect at 37[…] (diameter, mm)", "setting": "[1]; [17]", "result": 9, "unit": "mm"}, {"measurement": "sterilization effect at 25[…] (diameter, mm)", "setting": "[1]; [9]", "result": 13, "unit": "mm"}, {"measurement": "sterilization effect at 37[…] (diameter, mm)", "setting": "[1]; [10]", "result": 16, "unit": "mm"}, {"measurement": "sterilization effect at 25[…] (diameter, mm)", "setting": "[1]; [18]", "result": 16, "unit": "mm"}, {"measurement": "sterilization effect at 37[…] (diameter, mm)", "setting": "[1]; [18]", "result": 16, "unit": "mm"}, {"measurement": "sterilization effect at 25[…] (diameter, mm)", "setting": "[1]; [19]", "result": 18, "unit": "mm"}, {"measurement": "sterilization effect at 37[…] (diameter, mm)", "setting": "[1]; [19]", "result": 20, "unit": "mm"}, {"measurement": "sterilization effect at 25[…] (diameter, mm)", "setting": "[1]; [20]", "result": 18, "unit": "mm"}, {"measurement": "sterilization effect at 37[…] (diameter, mm)", "setting": "[1]; [20]", "result": 19, "unit": "mm"}, {"measurement": "sterilization effect at 25[…] (diameter, mm)", "setting": "[1]; [21]", "result": 20, "unit": "mm"}, {"measurement": "sterilization effect at 37[…] (diameter, mm)", "setting": "[1]; [21]", "result": 19, "unit": "mm"}, {"measurement": "sterilization effect at 25[…] (diameter, mm)", "setting": "[1]; [22]", "result": 20, "unit": "mm"}, {"measurement": "sterilization effect at 37[…] (diameter, mm)", "setting": "[1]; [22]", "result": 20, "unit": "mm"}]}
